Assay results taken from US20050112573A1, “Method of detecting toxic substance” (priority 2001, published 2005).

System: yeast genes (level of expressed mRNA)
Experiment: DNA chip analysis of expressed mRNA of yeast genes after 2 h culture with a toxic chemical substance
Format: cell-based, Saccharomyces cerevisiae S288C
Method in brief: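 Values are treated-to-control fluorescence ratios from a whole-yeast-genome DNA chip (65° C, over 12 h hybridization) using Cy3/Cy5-labelled cDNA from mRNA. Log-phase S288C cells in YPD at 25° C were exposed 2 h to a toxicant at sublethal, growth-inhibiting concentration.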

γ-hexachlorocyclohexane [(7)]
The level of expressed mRNA in the presence of chemical substance/The level of expressed mRNA in the absence of chemical substance (yeast gene YKL096W): 0.2 | The level of expressed mRNA in the presence of chemical substance/The level of expressed mRNA in the absence of chemical substance (yeast gene YKL139W): 2.6 | The level of expressed mRNA in the presence of chemical substance/ (yeast gene YKL151C, ratio to control without chemical substance, 2 h culture): 5.6 | The level of expressed mRNA in the presence of chemical substance/ (yeast gene YKL153W, ratio to control without chemical substance, 2 h culture): 1.1 | The level of expressed mRNA in the presence of chemical substance/The level of expressed mRNA in the absence of chemical substance (yeast gene YKL165C): 2.1 | The level of expressed mRNA in the presence of chemical substance/The level of expressed mRNA in the absence of chemical substance (yeast gene YKL193C): 2.1 | The level of expressed mRNA in the presence of chemical substance/ (yeast gene YKL195W, ratio to control without chemical substance, 2 h culture): 2.1 | The level of expressed mRNA in the presence of chemical substance/in the absence of chemical substance (yeast gene YKR009C): 1.0 | The level of expressed mRNA in the presence of chemical substance/The level of expressed mRNA in the absence of chemical substance (yeast gene YKR014C): 1.7 | The level of expressed mRNA in the presence of chemical substance/ (yeast gene YKR091W, ratio to control without chemical): 1.3 | The level of expressed mRNA in the presence of chemical substance/ (yeast gene YLR054C, ratio to control without chemical substance, 2 h culture): 1.1 | The level of expressed mRNA in the presence of chemical substance/The level of expressed mRNA in the absence of chemical substance (yeast gene YLR120C): 1.5 | The level of expressed mRNA in the presence of chemical substance/The level of expressed mRNA in the absence of chemical substance (yeast gene YLR136C): 3.9 | The level of expressed mRNA in the presence of chemical substance/ (yeast gene YLR149C, ratio to control without chemical substance, 2 h culture): 1.6 | The level of expressed mRNA in the presence of chemical substance/ (yeast gene YLR152C, ratio to control without chemical substance, 2 h culture): 1.4 | The level of expressed mRNA in the presence of chemical substance/The level of expressed mRNA in the absence of chemical substance (yeast gene YLR178C): 3.3 | The level of expressed mRNA in the presence of chemical substance/ (yeast gene YLR194C, ratio to control without chemical): 1.0 | The level of expressed mRNA in the presence of chemical substance/The level of expressed mRNA in the absence of chemical substance (yeast gene YLR250W): 1.9 | The level of expressed mRNA in the presence of chemical substance/ (yeast gene YLR324W, ratio to control without chemical substance, 2 h culture): 1.0 | The level of expressed mRNA in the presence of chemical substance/The level of expressed mRNA in the absence of chemical substance (yeast gene YLR327C): 5.7 | The level of expressed mRNA in the presence of chemical substance/ (yeast gene YLR350W, ratio to control without chemical substance, 2 h culture): 1.2 | The level of expressed mRNA in the presence of chemical substance/in the absence of chemical substance (yeast gene YLR351C): 1.4 | The level of expressed mRNA in the presence of chemical substance/The level of expressed mRNA in the absence of chemical substance (yeast gene YLR356W): 1.1 | The level of expressed mRNA in the presence of chemical substance/The level of expressed mRNA in the absence of chemical substance (yeast gene YLR362W): 1.9 | The level of expressed mRNA in the presence of chemical substance/in the absence of chemical substance (yeast gene YLR375W): 0.9 | The level of expressed mRNA in the presence of chemical substance/ (yeast gene YLR387C, ratio to control without chemical substance, 2 h culture): 1.1 | The level of expressed mRNA in the presence of chemical substance/The level of expressed mRNA in the absence of chemical substance (yeast gene YLR391W): 0.7 | The level of expressed mRNA in the presence of chemical substance/The level of expressed mRNA in the absence of chemical substance (yeast gene YLR429W): 1.3 | The level of expressed mRNA in the presence of chemical substance/ (yeast gene YLR460C, ratio to control without chemical substance, 2 h culture): 1.1 | The level of expressed mRNA in the presence of chemical substance/ (yeast gene YML117W, ratio to control without chemical substance, 2 h culture): 0.7 | The level of expressed mRNA in the presence of chemical substance/The level of expressed mRNA in the absence of chemical substance (yeast gene YMR004W): 1.2 | The level of expressed mRNA in the presence of chemical substance/ (yeast gene YMR009W, ratio to control without chemical substance, 2 h culture): 1.9 | The level of expressed mRNA in the presence of chemical substance/ (yeast gene YMR067C, ratio to control without chemical substance, 2 h culture): 1.2 | The level of expressed mRNA in the presence of chemical substance/ (yeast gene YMR090W, ratio to control without chemical substance, 2 h culture): 2.7 | The level of expressed mRNA in the presence of chemical substance/The level of expressed mRNA in the absence of chemical substance (yeast gene YMR094W): 0.8 | The level of expressed mRNA in the presence of chemical substance/ (yeast gene YMR095C, ratio to control without chemical): 1.2 | The level of expressed mRNA in the presence of chemical substance/ (yeast gene YMR097C, ratio to control without chemical substance, 2 h culture): 1.5 | The level of expressed mRNA in the presence of chemical substance/ (yeast gene YMR102C, ratio to control without chemical substance, 2 h culture): 1.8 | The level of expressed mRNA in the presence of chemical substance/The level of expressed mRNA in the absence of chemical substance (yeast gene YMR104C): 1.5 | The level of expressed mRNA in the presence of chemical substance/ (yeast gene YMR107W, ratio to control without chemical substance, 2 h culture): 1.2 | The level of expressed mRNA in the presence of chemical substance/ (yeast gene YMR180C, ratio to control without chemical substance, 2 h culture): 1.7 | The level of expressed mRNA in the presence of chemical substance/ (yeast gene YMR184W, ratio to control without chemical substance, 2 h culture): 1.6 | The level of expressed mRNA in the presence of chemical substance/ (yeast gene YMR191W, ratio to control without chemical substance, 2 h culture): 2.0 | The level of expressed mRNA in the presence of chemical substance/The level of expressed mRNA in the absence of chemical substance (yeast gene YMR226C): 1.8 | The level of expressed mRNA in the presence of chemical substance/in the absence of chemical substance (yeast gene YMR267W): 1.2 | The level of expressed mRNA in the presence of chemical substance/The level of expressed mRNA in the absence of chemical substance (yeast gene YMR275C): 0.8 | The level of expressed mRNA in the presence of chemical substance/The level of expressed mRNA in the absence of chemical substance (yeast gene YMR276W): 1.1 | The level of expressed mRNA in the presence of chemical substance/in the absence of chemical substance (yeast gene YMR278W): 1.8 | The level of expressed mRNA in the presence of chemical substance/in the absence of chemical substance (yeast gene YMR293C): 1.2 | The level of expressed mRNA in the presence of chemical substance/ (yeast gene YMR295C, ratio to control without chemical substance, 2 h culture): 1.3 | The level of expressed mRNA in the presence of chemical substance/The level of expressed mRNA in the absence of chemical substance (yeast gene YMR314W): 1.1 | The level of expressed mRNA in the presence of chemical substance/ (yeast gene YMR316W, ratio to control without chemical substance, 2 h culture): 2.0 | The level of expressed mRNA in the presence of chemical substance/The level of expressed mRNA in the absence of chemical substance (yeast gene YNL006W): 1.6 | The level of expressed mRNA in the presence of chemical substance/The level of expressed mRNA in the absence of chemical substance (yeast gene YNL007C): 1.2 | The level of expressed mRNA in the presence of chemical substance/ (yeast gene YNL044W, ratio to control without chemical substance, 2 h culture): 0.9
